For test [1], the target named is GST-Cldn4.Ecl2 (R4) (Mus musculus, UniProt O35054). Format: binding. To be noted: for Kd: read-out: calculated equilibrium affinity (KD).
The target of test [2] is T1, Cldn-4 Mutant R4 (Mus musculus, UniProt O35054).
T1 construct: made in house; host or cells: E. coli BL21 (pLysS)
The experiment in a line: KD (nM). The method, then:
(§1) Table printed on a drawing sheet, FIGURE 3
(§2) Title: Binding Kinetics of Various Peptides to Cldn-4 Mutant R4
Head of the field: KD (nM)
(§3) The processed specific binding sensorgrams are presented for each ligand. The 50 nM analyte concentration was repeated twice to confirm reproducibility. The binding kinetics was analyzed by “BIAevalution 3.1” software with 1:1 (langmuir) binding mode, and the binding constants were summarized in the table.
(§4) First copying reader's note: Panel B of FIGURE 3; panel A is a sensorgram plot and is left out.
(§5) Where the first naming reader finds the target: table_title: Binding Kinetics of Various Peptides to Cldn-4 Mutant R4

Test [3] addresses T1, Cldn-4 Mutant R4. The experiment in a line: Kd (1/s). How it is done:
as §1, §2
Head of the field: Kd (1/s)
as §3, §4, §5

Test [4] addresses T1, Cldn-4 Mutant R4.
Test [5] addresses Claudin-4 Ecl2 domain (synthetic biotinylated peptide) (Mus musculus, UniProt O35054). In kind it is binding.
In test [6] the target is GST protein (Schistosoma japonicum, UniProt P08515). In kind it is binding.

Entries after “also recorded” stand apart in the source; their conditions may differ. Where no end group is shown, it is not given here.

T1 sequence (O35054 117-181, change not shown): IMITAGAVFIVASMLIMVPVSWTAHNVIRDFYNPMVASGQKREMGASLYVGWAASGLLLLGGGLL
Sequence of GST protein (P08515 whole entry, looked up): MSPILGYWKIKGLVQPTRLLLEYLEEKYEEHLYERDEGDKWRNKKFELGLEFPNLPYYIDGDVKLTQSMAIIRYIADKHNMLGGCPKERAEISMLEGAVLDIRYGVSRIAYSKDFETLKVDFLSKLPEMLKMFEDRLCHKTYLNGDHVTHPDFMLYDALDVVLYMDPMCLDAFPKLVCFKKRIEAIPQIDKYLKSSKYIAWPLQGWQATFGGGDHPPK

With “NSSYSGNYPYSILFQKF [Cpe17, NSSYSGNYPYSILFQKF]”, in test [1], the off-rate result is given as “slightly slower off-rate”, the on-rate entry is on record as “similar”, the “specific binding to Cldn4 Ecl2 (GST-Cldn4.R4)” value (“specific binding to Cldn4 Ecl2” for short) is listed as “strong specific binding” and the Kd was 1.57 nM. The Kd in test [2] stood at 2.12 nM.
In the case of “SPWSEPAYTLAP [CC4P-5] [listing 1 of 2 here]”, in test [1], the “KD (stated in words)” value is listed as “nanomolar level” and the “specific binding to Cldn4 Ecl2” value is given as “clear specific binding; also recorded: significant affinity”.
In the case of “SPWSEPAYTLAP [CC4P-5] [listing 2 of 2 here]”, the “Kd” value in test [3] was found to be 0.00141 s⁻¹. For the same sequence, the “Ka” value in test [4] turned out to be 315000 M⁻¹ s⁻¹.
On to “SLDAGQYVLVMKANSSYSGNYPYSILFQKF [Cpe30] [listing 1 of 2 here]”, for which the “Ka” value in test [4] was determined as 130000 M⁻¹ s⁻¹.
As to “APWTEHSYYLSL [CC4P-13] [listing 1 of 2 here]”, in test [1], the “KD (stated in words)” value is recorded as “nanomolar level” and the “specific binding to Cldn4 Ecl2” value is listed as “clear specific binding; also recorded: orientation of biotinylation did not affect the binding; also recorded: significant affinity”.
Turning to “SLDAGQYVLVMKANSSYSGNYPYSILFQKF [Cpe30] [listing 2 of 2 here]”, in test [1], the on-rate entry is reported as “similar”, the “specific binding to Cldn4 Ecl2” value is given as “optimal binding activity; also recorded: strong specific binding” and the Kd was 2.56 nM. Besides, in test [5], the “binding to lariat Ecl2 (cyclic, disulfide bond)” value was “failed to bind”; the “binding to linear B-Ecl2 peptide” value is reported as “No specific binding”; the “binding to tethered Ecl2 (B-Ecl2-B, biotin at both termini)” value is “failed to bind”. The “binding to GST protein only” value in test [6] was “did not bind”.
On to ASNSSYSGNYSIL [Cpe30 MT3], for which the “specific binding to Cldn4 Ecl2” value in test [1] is on record as “did not bind”.
For “APWTEHSYYLSL [CC4P-13] [listing 2 of 2 here]”, the “Kd” value in test [3] amounted to 0.000742 s⁻¹.
On to VTHKTCPPACWP [CC4P-2], for which the “specific binding to Cldn4 Ecl2” value in test [1] is recorded as “no specific binding”.
With SSYSGNYPYSIL [Cpe30 MT1], the “specific binding to Cldn4 Ecl2” value in test [1] is “no specific binding; also recorded: did not bind”.
Regarding APWTEHSYYLSL [CC4P-13R], the off-rate entry in test [1] is reported as “slowest off-rate”.

Values taken from patent US8258257B2 (The Regents of the University of California, priority 2008, dated 2012).
